These are literature values, as cited in patent US20050188697A1, “Fluorinated ketone and fluorinated ethers as working fluids for thermal energy conversion” (HONEYWELL CORPORATION, priority 2004, published 2005).

For series [1] the following is noted: for Critical Temperature, Tc: Table 4 input.
The conditions of series [2]: at 1 atmosphere.

SMILES strings stand for the structures.

For `COC(F)(F)C(F)(F)C(F)(F)F` [Methyl (perfluoropropyl) ether, 1-methoxyheptafluoropropane], in series [1], the “Critical Temperature, Tc” value is 165.0 °C and the “Heat Capacity (liquid, 25° C.)” value is 260.0 J/g-mol K. Besides, the “Flame Limits” value in series [2] is reported as “None”.

Take `COC(F)(F)C(F)(F)C(F)(F)C(F)(F)F` [Methyl (perfluorobutyl) ether, 1-methoxynonafluorobutane]: in series [1], the “Critical Temperature, Tc” value was 195.3 °C and the “Heat Capacity (liquid, 25° C.)” value was 293.8 J/g-mol K. The “Flame Limits” value in series [2] is given as “None”.

Turning to `FC(F)(F)C(Cl)Cl` [HCFC-123, 1,1-dichloro-2,2,2-trifluoroethane, reference compound], in series [1], the “Critical Temperature, Tc” value is 183.6 °C and the “Heat Capacity (liquid, 25° C.)” value is 160.3 J/g-mol K. Also, the “temperature at which toxic HCFC-133a is formed” value (thermal decomposition) was “below 300 ° F”. Besides, the “maximum temperature (thermal limitation)” value (to avoid formation of toxic HCFC-133a via thermal decomposition) was 121.0 °C. In series [2], the “Flame Limits” value was “None”.

With `O=C(C(F)(F)C(F)(F)F)C(F)(C(F)(F)F)C(F)(F)F` [Perfluoroethyl perfluoroisopropyl ketone, dodecafluoro-2-methylpentan-3-one], in series [1], the “Critical Temperature, Tc” value is 168.7 °C and the “Heat Capacity (liquid, 25° C.)” value was 348.5 J/g-mol K. The “Flame Limits” value in series [2] is given as “None”.

As to `FC(F)CC(F)(F)F` [HFC-245fa, 1,1,1,3,3-pentafluoropropane, reference compound], in series [1], the “Critical Temperature, Tc” value is 151.1 °C and the “Heat Capacity (liquid, 25° C.)” value is listed as 185.5 J/g-mol K. In series [2], the “Flame Limits” value is reported as “None”.
